In patent US11186583B2, “5-alkylthio-7-[(4-arylbenzyl)amino]-1(2)H-pyrazolo[4,3-d]pyrimidines for treatment of lymphoma” (UNIVERZITA PALACKEHO V OLOMOUCI, priority 2018, dated 2021) one finds GI50 and IC50 data, which are given here for 5 compounds.

Like-named read-outs stand apart in the source and are kept apart here.

Test [1] relates to HT (diffuse large B-cell lymphoma, subtype—germinal center B-cell). Nature of the test: MTT cytotoxicity assay, HT lymphoma cell line. The conditions noted are these: Homo sapiens, 72 h, HT cells, three days, read-out: Lymphoma cell lines GI50, HT. In kind it is cell-based. An excerpt: (§1) Cytotoxicity of the compounds is the major property determining their anti-lymphoma efficacy in vitro. One of the parameters used, as the basis for cytotoxicity assays, is the metabolic activity of viable cells. For example 2, a microtiter assay, which uses (3-(4,5-dimethylthiazol-2-yl)-2,5-diphenyltetrazolium bromide (MTT), is widely used to quantitate cell proliferation and cytotoxicity. This assay is widely used in drug screening programs and in chemosensitivity testing. Because only metabolically active living cells reduce MTT to correspond purple formazan dye, these assays detect viable cells exclusively. The quantity of reduced MTT corresponds to the number of vital cells in the culture.
(§2) The compounds were assayed using the following lymphoma cell lines: HT (diffuse large B-cell lymphoma, subtype—germinal center B-cell), OCI-LY2 (diffuse large B-cell lymphoma, subtype—germinal center B-cell), MINO (mantle cell lymphoma). All cell lines were grown in RPMI medium supplemented with fetal bovine serum and glutamine and maintained at 37° C. in a humidified atmosphere with 5% CO2. For cytotoxicity assays, 5000-10000 cells were seeded into each well of 96 well plate, allowed to stabilize for at least 8 h and then tested compounds were added at various concentrations ranging from 100 to 0.01 μM in triplicates. After three days, MTT solution (5 mg/ml; Sigma, St. Louis, USA) was added to cells and medium was replaced with DMSO after five hours. The absorbance was measured at 620 nm by employing a microplate reader. MTT assays were repeated 3 times for each drug application and untreated cells were used as reference. The GI50 values, drug concentrations lethal to 50% of the cells, were calculated from the obtained dose response curves.
On the technique in general: Tetrazolium assays rely on reduction of a dye to a coloured formazan, in cell work by metabolically active cells.

Test [2] has as its system OCI-LY2 (diffuse large B-cell lymphoma, subtype—germinal center B-cell). Nature of the test: MTT cytotoxicity assay, OCI-LY2 lymphoma cell line. It counts as cell-based. Particulars: 72 h, OCI-LY2 cells, three days, read-out: Lymphoma cell lines GI50, OCI-LY2.
Text: as §1, §2

Test [3] concerns MINO (mantle cell lymphoma). Description: MTT cytotoxicity assay, MINO lymphoma cell line. In kind it is cell-based. Particulars: Homo sapiens, 72 h, MINO cells, three days, read-out: Lymphoma cell lines GI50, MINO.
Text: as §1, §2

A further test deals with T1, CDK2/Cyclin E (Homo sapiens, UniProt P24941).
T1 construct: made in house; host or cells: Sf9 insect cells (baculovirus)
Description: CDK2/Cyclin E kinase inhibition, [γ-33P]ATP, histone H1. It counts as biochemical. How it is done: CDK2/Cyclin E and CDK1/Cyclin B kinases were produced in Sf9 insect cells via baculoviral infection and purified on a Ni-NTA column (Qiagen). CDK4/Cyclin D1, CDK5/p35NCK, CDK7/Cyclin H/MAT1 and CDK9/Cyclin T1 were purchased from ProQinase GmbH. […] The reactions were stopped by adding 5 mL of 3% aq. H3PO4. Aliquots were spotted onto P-81 phosphocellulose (Whatman), washed 3 times with 0.5% aq. H3PO4 and finally air-dried. Kinase inhibition was quantified using a FLA-7000 digital image analyzer (Fujifilm). The concentration of the test compounds required to decrease the CDK activity by 50% was determined from dose response curves and designated as IC50.

For the next test, the target named is T2, CDK4/Cyclin D1 (Homo sapiens, UniProt P11802).
T2 construct: purchased ProQinase GmbH
Nature of the test: CDK4/Cyclin D1 kinase inhibition, [γ-33P]ATP, […] peptide. In kind it is biochemical. Particulars: CDK panel, tested at least in duplicates. The method, then: (§3) CDK2/Cyclin E and CDK1/Cyclin B kinases were produced in Sf9 insect cells via baculoviral infection and purified on a Ni-NTA column (Qiagen). CDK4/Cyclin D1, CDK5/p35NCK, CDK7/Cyclin H/MAT1 and CDK9/Cyclin T1 were purchased from ProQinase GmbH. The kinases were assayed with 1 mg/mL histone H1 (for CDK1/2/5) or (YSPTSPS)2 KK peptide (for CDK7/CDK9) or […] peptide (for CDK4) in the presence of […] (for CDK1/2/4/5/7/9), 0.05 mCi [γ-33P]ATP and of the test compound in a final volume of […], all in a reaction buffer (60 mM HEPES, NaOH, pH 7.5, 3 mM MgCl2, 3 mM MnCl2, 3 mM Na-orthovanadate, 1.2 mM DTT, 2.5 mg/50 ml PEG20.000). The reactions were stopped by adding […] of 3% aq. H3PO4. Aliquots were spotted onto P-81 phosphocellulose (Whatman), washed 3 times with 0.5% aq. H3PO4 and finally air-dried. Kinase inhibition was quantified using a FLA-7000 digital image analyzer (Fujifilm). The concentration of the test compounds required to decrease the CDK activity by 50% was determined from dose response curves and designated as IC50.

The target in the next test is T3, CDK9/Cyclin T1 (Homo sapiens, UniProt P50750).
T3 construct: purchased ProQinase GmbH
Description: CDK9/Cyclin T1 kinase inhibition, [γ-33P]ATP, (YSPTSPS)2 KK peptide. In kind it is biochemical. The conditions noted are these: CDK panel, tested at least in duplicates. How it is done: as §3

The mark [4] stands for this setting: Table 3, read-out: Enzyme inhibition IC50 CDK2/E.
Where [5] appears, read: Table 4, read-out: CDK2/E inhibition IC50.

T3 sequence (P50750 whole entry): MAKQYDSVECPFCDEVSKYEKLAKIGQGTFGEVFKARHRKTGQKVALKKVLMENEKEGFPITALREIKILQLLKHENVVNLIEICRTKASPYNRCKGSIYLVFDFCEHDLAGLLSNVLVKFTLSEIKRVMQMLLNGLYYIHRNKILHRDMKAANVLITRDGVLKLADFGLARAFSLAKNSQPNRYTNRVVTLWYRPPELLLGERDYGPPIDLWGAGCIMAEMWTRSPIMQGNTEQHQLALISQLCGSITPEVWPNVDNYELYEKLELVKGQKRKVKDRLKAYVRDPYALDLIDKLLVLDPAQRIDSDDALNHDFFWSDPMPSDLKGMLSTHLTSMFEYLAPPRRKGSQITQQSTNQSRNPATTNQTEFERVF
T3 sequence (O60563 whole entry partner): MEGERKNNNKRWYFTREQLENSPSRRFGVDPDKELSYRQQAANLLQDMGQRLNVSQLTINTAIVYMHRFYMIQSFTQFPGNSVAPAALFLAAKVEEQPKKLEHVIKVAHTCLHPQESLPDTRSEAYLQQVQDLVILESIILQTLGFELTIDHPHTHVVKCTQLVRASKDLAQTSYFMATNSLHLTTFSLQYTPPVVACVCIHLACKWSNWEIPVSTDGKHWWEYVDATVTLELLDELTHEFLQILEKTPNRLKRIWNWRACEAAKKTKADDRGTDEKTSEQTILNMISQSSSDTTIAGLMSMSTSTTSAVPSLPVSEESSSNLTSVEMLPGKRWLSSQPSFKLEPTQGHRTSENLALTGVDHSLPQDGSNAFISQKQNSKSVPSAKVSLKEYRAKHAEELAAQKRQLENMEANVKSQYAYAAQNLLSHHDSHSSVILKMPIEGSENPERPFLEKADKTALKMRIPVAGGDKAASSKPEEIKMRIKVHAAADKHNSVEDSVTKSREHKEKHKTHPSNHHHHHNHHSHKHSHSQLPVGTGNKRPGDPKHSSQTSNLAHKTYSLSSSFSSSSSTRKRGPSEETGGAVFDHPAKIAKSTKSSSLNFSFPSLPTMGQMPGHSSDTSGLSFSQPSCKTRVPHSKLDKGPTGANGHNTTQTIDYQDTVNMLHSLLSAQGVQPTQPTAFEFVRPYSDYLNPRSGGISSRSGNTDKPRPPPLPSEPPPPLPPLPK
T2 sequence (P11802 whole entry): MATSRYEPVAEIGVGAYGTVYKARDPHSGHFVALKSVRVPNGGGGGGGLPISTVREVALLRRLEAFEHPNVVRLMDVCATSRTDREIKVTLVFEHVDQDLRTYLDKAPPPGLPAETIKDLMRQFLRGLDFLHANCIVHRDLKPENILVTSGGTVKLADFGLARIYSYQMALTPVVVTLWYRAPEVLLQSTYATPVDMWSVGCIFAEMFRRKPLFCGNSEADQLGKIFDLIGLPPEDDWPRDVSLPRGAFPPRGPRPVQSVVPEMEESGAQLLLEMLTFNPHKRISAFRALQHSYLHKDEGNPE
T2 sequence (P24385 whole entry partner): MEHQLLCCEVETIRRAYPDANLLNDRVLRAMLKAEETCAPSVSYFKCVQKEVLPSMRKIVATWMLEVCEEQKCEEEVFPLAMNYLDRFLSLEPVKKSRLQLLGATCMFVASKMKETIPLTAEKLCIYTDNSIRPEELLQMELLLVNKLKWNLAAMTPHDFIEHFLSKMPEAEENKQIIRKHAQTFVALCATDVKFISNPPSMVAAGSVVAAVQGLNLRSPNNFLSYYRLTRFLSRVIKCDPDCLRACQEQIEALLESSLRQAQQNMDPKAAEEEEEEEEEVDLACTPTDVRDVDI

Take `CC(C)c1n[nH]c2c(NCc3ccc(-c4ccccn4)cc3)nc(SC3OC(CO)C(O)C(O)C3O)nc12` [Compound 4.22, 5-β-D-Thioglucosid-3-isopropyl-7-[4-(2-pyridyl)benzyl]amino-1(2)H-pyrazolo[4,3-d]pyrimidine]: the GI50 turned out to be 8070 nM in test [1], 25200 nM in test [2] and 21600 nM in test [3]. In addition, the IC50 at CDK2/Cyclin E (setting [4]) stood at 363 nM.
As to `CC[C@@H](CO)Nc1nc(NCc2ccc(-c3ccccn3)cc2)c2ncn(C(C)C)c2n1` [CR8, (2S)-2-[[9-propan-2-yl-6-[(4-pyridine-2-ylphenyl)methylamino]purin-2-yl]amino]butan-1-ol], the results for the IC50 at CDK4/Cyclin D1 and against CDK9/Cyclin T1 were 26100 nM and 272 ± 38 nM, respectively.
`CC(C)c1[nH]nc2c(NCc3ccc(-n4cccn4)cc3)nc(SCCN(C)C)nc12` [Compound 4.95]: the IC50 on CDK2/Cyclin E (setting [5]) came to 43 nM.
Turning to `CC(C)c1n[nH]c2c(NCc3ccc(-n4ccnc4)cc3)nc(SCCO)nc12` [Compound 4.50, 5-(2-Hydroxy-1-ethyl)thio-3-isopropyl-7-[4-(imidazol-1-yl)benzyl]amino-1(2)H-pyrazolo[4,3-d]pyrimidine], the IC50 on CDK2/Cyclin E (setting [5]) came to 10 nM.
Take `CC(C)c1n[nH]c2c(NCc3ccc(-c4ccccn4)cc3)nc(SCCN)nc12` [Compound 4.9, 5-(2-Amino-1-ethyl)thio-3-isopropyl-7-[4-(2-pyridyl)benzyl]amino-1(2)H-pyrazolo[4,3-d]pyrimidine]: the GI50 in test [1] is 40 nM; in test [2] it was 46 nM; in test [3] it was 29 nM. For the same compound, the IC50 was found to be 5 ± 1 nM on CDK2/Cyclin E (CDK panel, tested at least in duplicates, read-out: IC50 CDK2) and 4 nM at CDK2/Cyclin E (setting [4]).

A word on the GI50: it is the concentration that inhibits growth by half.
